Values of other authors in paper PMC4826315 (Journal of molecular biology, 2016).

Experiments:
[1] = tested on: retinoblastoma tumors; conditions: mouse model system
[2] = tested on: Mdm2; conditions: read-out: IC50, inhibition of p53 binding to Mdm2; FP assay

Structure (SMILES): COc1ccc(C2=N[C@@H](c3ccc(Cl)cc3)[C@@H](c3ccc(Cl)cc3)N2C(=O)N2CCNC(=O)C2)c(OC(C)C)c1 [Nutlin-3a]
- effect on retinoblastoma tumors [1]: caused regression of retinoblastoma tumors
